# Test results reported in PubChem BioAssay AID1963860 (Molecular Pharmacology Branch, DTP, NCI, 2024).
# Tested on: CN0375-F725-PDC KRAS spheroid viability
# Test: Anticancer human tumor CN0375-F725-PDC patient-derived colon carcinoma cell line growth inhibition [KRAS2]
# Details: spheroids with HUVEC and MSC; for viability, T/C: stronger effect = lower value
# In short: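 Combination screen of spheroid viability in tumor-cell co-cultures with endothelial (HUVEC) and mesenchymal stem cell stroma. Each agent was tested in half-log dilutions, topping at clinical Cmax or at 10 microM without a known Cmax.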
# [1] = curve of first compound, second compound 0.1 µM
# [2] = curve of first compound, second compound 0.316 µM
# [3] = curve of first compound, second compound 1 µM
# [4] = curve of first compound, second compound 3.16 µM
# [5] = second compound 0.1 µM, first compound 0.0316 µM
# [6] = second compound 0.1 µM, first compound 0.1 µM
# [7] = second compound 0.1 µM, first compound 0.316 µM
# [8] = second compound 0.1 µM, first compound 1 µM
# [9] = second compound 0.1 µM, first compound 3.16 µM
# [10] = second compound 0.1 µM, first compound 10 µM
# [11] = second compound 0.316 µM, first compound 0.0316 µM
# [12] = second compound 0.316 µM, first compound 0.1 µM
# [13] = second compound 0.316 µM, first compound 0.316 µM
# [14] = second compound 0.316 µM, first compound 1 µM
# [15] = second compound 0.316 µM, first compound 3.16 µM
# [16] = second compound 0.316 µM, first compound 10 µM
# [17] = second compound 1 µM, first compound 0.0316 µM
# [18] = second compound 1 µM, first compound 0.1 µM
# [19] = second compound 1 µM, first compound 0.316 µM
# [20] = second compound 1 µM, first compound 1 µM
# [21] = second compound 1 µM, first compound 3.16 µM
# [22] = second compound 1 µM, first compound 10 µM
# [23] = second compound 3.16 µM, first compound 0.0316 µM
# [24] = second compound 3.16 µM, first compound 0.1 µM
# [25] = second compound 3.16 µM, first compound 0.316 µM
# [26] = second compound 3.16 µM, first compound 1 µM
# [27] = second compound 3.16 µM, first compound 3.16 µM
# [28] = second compound 3.16 µM, first compound 10 µM
# [29] = curve of first compound, second compound 10 µM
# [30] = second compound 10 µM, first compound 0.0316 µM
# 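Note: spheroids exposed to agents for 7 days.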
structure (smiles),measurement,setting,value
COc1cc2nccc(Oc3ccc(NC(=O)C4(C(=O)Nc5ccc(F)cc5)CC4)cc3)c2cc1OC + C=CC(=O)N1CCN(c2nc(OCC3CCCN3C)nc3c2CCN(c2cccc4cccc(C)c24)C3)CC1CC#N,IC50,"curve of first compound, second compound 0.0316 µM",> 10000 nM
same,IC50,[1],> 10000 nM
same,IC50,[2],> 10000 nM
same,IC50,[3],1910 nM
same,IC50,[4],< 31.6 nM
same,"viability, T/C","second compound 0.0316 µM, first compound 0.0316 µM",106%
same,"viability, T/C","second compound 0.0316 µM, first compound 0.1 µM",100%
same,"viability, T/C","second compound 0.0316 µM, first compound 0.316 µM",91.3%
same,"viability, T/C","second compound 0.0316 µM, first compound 1 µM",85.9%
same,"viability, T/C","second compound 0.0316 µM, first compound 3.16 µM",61.1%
same,"viability, T/C","second compound 0.0316 µM, first compound 10 µM",69.8%
same,"viability, T/C",[5],101%
same,"viability, T/C",[6],101%
same,"viability, T/C",[7],92.6%
same,"viability, T/C",[8],83.2%
same,"viability, T/C",[9],53.8%
same,"viability, T/C",[10],68.9%
same,"viability, T/C",[11],96.6%
same,"viability, T/C",[12],100%
same,"viability, T/C",[13],85.9%
same,"viability, T/C",[14],80.7%
same,"viability, T/C",[15],56.9%
same,"viability, T/C",[16],52.8%
same,"viability, T/C",[17],95.5%
same,"viability, T/C",[18],92%
same,"viability, T/C",[19],90.7%
same,"viability, T/C",[20],75.7%
same,"viability, T/C",[21],29.9%
same,"viability, T/C",[22],9.59%
same,"viability, T/C",[23],14.4%
same,"viability, T/C",[24],18.7%
same,"viability, T/C",[25],3.2%
same,"viability, T/C",[26],0.26%
same,"viability, T/C",[27],0.13%
same,"viability, T/C",[28],0.17%
C=CC(=O)N1CCN(c2nc(OCC3CCCN3C)nc3c2CCN(c2cccc4cccc(C)c24)C3)CC1CC#N (stereo not given),"viability, T/C",compound 0.0316 µM,100% [middle of 17 runs]
same,"viability, T/C",compound 0.1 µM,100% [middle of 17 runs]
same,"viability, T/C",compound 0.316 µM,98.1% [middle of 17 runs]
same,"viability, T/C",compound 1 µM,92.7% [middle of 17 runs]
same,IC50,"compound alone, run of 08/26/2021",1.82 µM [middle of 5 runs]
same,IC50,"compound alone, run of 09/02/2021",2.09 µM [middle of 5 runs]
COc1cc(OC)cc(N(CCNC(C)C)c2ccc3ncc(-c4cnn(C)c4)nc3c2)c1,"viability, T/C",compound 0.0316 µM,94.3% [middle of 5 runs]
same,"viability, T/C",compound 0.1 µM,91.7% [middle of 5 runs]
same,"viability, T/C",compound 0.316 µM,92.1% [middle of 5 runs]
same,"viability, T/C",compound 1 µM,103% [middle of 5 runs]
same,"viability, T/C",compound 3.16 µM,82.9% [middle of 5 runs]
same,"viability, T/C",compound 10 µM,2.52% [middle of 5 runs]
same,IC50,curve of compound,5.06 µM [middle of 4 runs]
CC(=O)Nc1cccc(-n2c(=O)n(C3CC3)c(=O)c3c(Nc4ccc(I)cc4F)n(C)c(=O)c(C)c32)c1 + CC1OCC2(CCN(c3cnc(Sc4ccnc(N)c4Cl)c(N)n3)CC2)C1N,IC50,[1],4.59 nM
same,IC50,[2],2.09 nM
same,IC50,[3],1.61 nM
same,IC50,[4],0.826 nM
same,IC50,[29],0.257 nM
same,"viability, T/C","second compound 0.1 µM, first compound 0.0001 µM",90.5%
same,"viability, T/C","second compound 0.1 µM, first compound 0.000316 µM",79.2%
same,"viability, T/C","second compound 0.1 µM, first compound 0.001 µM",64%
same,"viability, T/C","second compound 0.1 µM, first compound 0.00316 µM",54.7%
same,"viability, T/C","second compound 0.1 µM, first compound 0.01 µM",42.8%
same,"viability, T/C",[5],30.5%
same,"viability, T/C","second compound 0.316 µM, first compound 0.0001 µM",84.5%
same,"viability, T/C","second compound 0.316 µM, first compound 0.000316 µM",75.8%
same,"viability, T/C","second compound 0.316 µM, first compound 0.001 µM",57.5%
same,"viability, T/C","second compound 0.316 µM, first compound 0.00316 µM",44.9%
same,"viability, T/C","second compound 0.316 µM, first compound 0.01 µM",39.2%
same,"viability, T/C",[11],32.5%
same,"viability, T/C","second compound 1 µM, first compound 0.0001 µM",78.4%
same,"viability, T/C","second compound 1 µM, first compound 0.000316 µM",66.8%
same,"viability, T/C","second compound 1 µM, first compound 0.001 µM",55.1%
same,"viability, T/C","second compound 1 µM, first compound 0.00316 µM",42.5%
same,"viability, T/C","second compound 1 µM, first compound 0.01 µM",35%
same,"viability, T/C",[17],27.4%
same,"viability, T/C","second compound 3.16 µM, first compound 0.0001 µM",66.5%
same,"viability, T/C","second compound 3.16 µM, first compound 0.000316 µM",65.8%
same,"viability, T/C","second compound 3.16 µM, first compound 0.001 µM",45.2%
same,"viability, T/C","second compound 3.16 µM, first compound 0.00316 µM",36.2%
same,"viability, T/C","second compound 3.16 µM, first compound 0.01 µM",31.4%
same,"viability, T/C",[23],27.2%
same,"viability, T/C","second compound 10 µM, first compound 0.0001 µM",63.1%
same,"viability, T/C","second compound 10 µM, first compound 0.000316 µM",46.4%
same,"viability, T/C","second compound 10 µM, first compound 0.001 µM",37.6%
same,"viability, T/C","second compound 10 µM, first compound 0.00316 µM",30%
same,"viability, T/C","second compound 10 µM, first compound 0.01 µM",23.5%
same,"viability, T/C",[30],24.6%
CC1OCC2(CCN(c3cnc(Sc4ccnc(N)c4Cl)c(N)n3)CC2)C1N (stereo not given) + COc1cc2nc(C)nc(NC(C)c3cc(N)cc(C(F)(F)F)c3)c2cc1OC1CCOC1,IC50,[1],> 10000 nM
same,IC50,[2],> 10000 nM
same,IC50,[3],> 10000 nM
same,IC50,[4],4640 nM
same,IC50,[29],< 31.6 nM
same,"viability, T/C",[5],95.5%
same,"viability, T/C",[6],83.2%
same,"viability, T/C",[7],80.6%
same,"viability, T/C",[8],81.2%
same,"viability, T/C",[9],76%
same,"viability, T/C",[10],70.7%
same,"viability, T/C",[11],90.5%
same,"viability, T/C",[12],91.7%
same,"viability, T/C",[13],73.3%
same,"viability, T/C",[14],77.8%
same,"viability, T/C",[15],71%
same,"viability, T/C",[16],60.6%
same,"viability, T/C",[17],91.3%
same,"viability, T/C",[18],87.2%
same,"viability, T/C",[19],81.3%
same,"viability, T/C",[20],73.9%
same,"viability, T/C",[21],68.7%
same,"viability, T/C",[22],60.4%
same,"viability, T/C",[23],80.9%
same,"viability, T/C",[24],73.8%
same,"viability, T/C",[25],69%
same,"viability, T/C",[26],57.2%
same,"viability, T/C",[27],61.3%
same,"viability, T/C",[28],40.1%
same,"viability, T/C",[30],13.6%
same,"viability, T/C","second compound 10 µM, first compound 0.1 µM",12.1%
same,"viability, T/C","second compound 10 µM, first compound 0.316 µM",12.8%
same,"viability, T/C","second compound 10 µM, first compound 1 µM",8.09%
same,"viability, T/C","second compound 10 µM, first compound 3.16 µM",8.5%
same,"viability, T/C","second compound 10 µM, first compound 10 µM",5.15%
COc1cc2nccc(Oc3ccc(NC(=O)C4(C(=O)Nc5ccc(F)cc5)CC4)cc3)c2cc1OC,"viability, T/C",compound 0.0316 µM,102% [middle of 5 runs]
same,"viability, T/C",compound 0.1 µM,97.5% [middle of 5 runs]
same,"viability, T/C",compound 0.316 µM,92.5% [middle of 5 runs]
same,"viability, T/C",compound 1 µM,88.5% [middle of 5 runs]
same,"viability, T/C",compound 3.16 µM,57.1% [middle of 5 runs]
same,"viability, T/C",compound 10 µM,67.7% [middle of 5 runs]
same,IC50,curve of compound,> 10000 nM
